According to patent publication US11572590B2, “Methods for evaluating tumor cell spheroids using 3D microfluidic cell culture device” (Dana-Farber Cancer Institute, Inc., priority 2017, dated 2023):
Where two headings read alike, the source gives them in different places.

Columns and labels:
Assay in all cases: SelectScreen Kinase Profiling, single point inhibition and IC50 for off-target kinases
Format in all cases: biochemical
[1] = target: off-target kinases (Homo sapiens, UniProt O00750); conditions: PIK3C2B (PI3K-C2 beta), Adapta, ATP 10
[2] = target: T1, off-target kinases (Homo sapiens, UniProt O75385); conditions: ULK1, LanthaScreen Binding
T1 sequence (O75385 1-1050): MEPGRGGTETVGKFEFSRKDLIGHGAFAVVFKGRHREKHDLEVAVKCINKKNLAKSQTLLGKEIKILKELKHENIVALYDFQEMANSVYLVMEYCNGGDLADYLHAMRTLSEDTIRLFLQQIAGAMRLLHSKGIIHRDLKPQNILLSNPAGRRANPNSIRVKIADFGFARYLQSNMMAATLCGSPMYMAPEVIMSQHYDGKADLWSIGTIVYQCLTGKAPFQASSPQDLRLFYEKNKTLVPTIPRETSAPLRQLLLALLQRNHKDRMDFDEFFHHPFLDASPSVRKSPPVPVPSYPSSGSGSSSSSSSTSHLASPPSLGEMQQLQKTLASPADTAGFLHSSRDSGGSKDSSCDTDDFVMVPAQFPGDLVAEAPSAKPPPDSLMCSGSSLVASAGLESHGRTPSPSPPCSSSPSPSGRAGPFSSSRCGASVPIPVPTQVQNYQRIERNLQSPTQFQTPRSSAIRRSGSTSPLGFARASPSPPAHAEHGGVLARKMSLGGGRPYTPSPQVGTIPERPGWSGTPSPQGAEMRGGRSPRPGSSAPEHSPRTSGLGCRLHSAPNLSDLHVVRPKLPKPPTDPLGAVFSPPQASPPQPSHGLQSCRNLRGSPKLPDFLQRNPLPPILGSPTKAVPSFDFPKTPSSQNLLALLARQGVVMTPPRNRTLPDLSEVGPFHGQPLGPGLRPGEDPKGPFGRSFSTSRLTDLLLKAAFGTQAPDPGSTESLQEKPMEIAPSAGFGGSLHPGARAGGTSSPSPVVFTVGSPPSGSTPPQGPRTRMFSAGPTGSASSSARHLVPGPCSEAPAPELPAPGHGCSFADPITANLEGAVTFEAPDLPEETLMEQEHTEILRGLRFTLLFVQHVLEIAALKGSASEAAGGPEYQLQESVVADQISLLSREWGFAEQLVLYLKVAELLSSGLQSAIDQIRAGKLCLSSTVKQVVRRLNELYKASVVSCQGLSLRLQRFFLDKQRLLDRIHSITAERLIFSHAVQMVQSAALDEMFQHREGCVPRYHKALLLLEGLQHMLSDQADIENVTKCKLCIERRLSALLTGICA

[3] = target: off-target kinases (Homo sapiens, UniProt P09769); conditions: FGR, ATP Km app, ZLYTE
[4] = target: off-target kinases (Homo sapiens, UniProt P42345); conditions: FRAP1 (mTOR), ZLYTE, ATP Km app
[5] = target: off-target kinases (Homo sapiens, UniProt Q16539); conditions: ZLYTE
[6] = target: off-target kinases (Homo sapiens, UniProt Q9HCP0); conditions: CSNK1G1 (CK1 gamma 1); Cmpd1 1000 μM; ATP Km app; ZLYTE
[7] = target: off-target kinases (Homo sapiens, UniProt Q9P289); conditions: MST4, ZLYTE, ATP Km app
Chain of off-target kinases (Homo sapiens, UniProt Q9P289) (Q9P289 whole entry): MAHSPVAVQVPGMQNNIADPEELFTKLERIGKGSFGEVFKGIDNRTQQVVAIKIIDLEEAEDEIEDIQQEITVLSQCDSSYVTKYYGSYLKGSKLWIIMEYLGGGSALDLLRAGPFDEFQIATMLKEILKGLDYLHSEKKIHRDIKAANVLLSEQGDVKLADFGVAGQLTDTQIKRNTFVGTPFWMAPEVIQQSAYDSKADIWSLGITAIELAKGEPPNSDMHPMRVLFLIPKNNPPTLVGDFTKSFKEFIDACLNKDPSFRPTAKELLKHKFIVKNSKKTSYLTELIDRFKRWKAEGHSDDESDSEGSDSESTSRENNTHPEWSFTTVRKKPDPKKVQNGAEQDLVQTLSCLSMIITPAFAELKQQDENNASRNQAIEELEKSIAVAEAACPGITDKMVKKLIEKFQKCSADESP

Chain of off-target kinases (Homo sapiens, UniProt Q9HCP0) (Q9HCP0 whole entry): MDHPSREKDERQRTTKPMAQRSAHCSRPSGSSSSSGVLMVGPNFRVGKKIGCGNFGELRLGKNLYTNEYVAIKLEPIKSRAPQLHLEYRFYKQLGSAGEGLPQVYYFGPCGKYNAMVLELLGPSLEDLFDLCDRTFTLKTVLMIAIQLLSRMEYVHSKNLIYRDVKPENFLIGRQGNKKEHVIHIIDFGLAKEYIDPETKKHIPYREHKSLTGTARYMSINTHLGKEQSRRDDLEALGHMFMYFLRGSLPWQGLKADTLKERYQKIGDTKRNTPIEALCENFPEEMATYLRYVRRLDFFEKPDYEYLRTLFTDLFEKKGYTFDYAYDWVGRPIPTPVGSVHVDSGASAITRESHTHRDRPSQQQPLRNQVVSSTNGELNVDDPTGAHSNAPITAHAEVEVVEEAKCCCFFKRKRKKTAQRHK
Chain of off-target kinases (Homo sapiens, UniProt P09769) (P09769 whole entry): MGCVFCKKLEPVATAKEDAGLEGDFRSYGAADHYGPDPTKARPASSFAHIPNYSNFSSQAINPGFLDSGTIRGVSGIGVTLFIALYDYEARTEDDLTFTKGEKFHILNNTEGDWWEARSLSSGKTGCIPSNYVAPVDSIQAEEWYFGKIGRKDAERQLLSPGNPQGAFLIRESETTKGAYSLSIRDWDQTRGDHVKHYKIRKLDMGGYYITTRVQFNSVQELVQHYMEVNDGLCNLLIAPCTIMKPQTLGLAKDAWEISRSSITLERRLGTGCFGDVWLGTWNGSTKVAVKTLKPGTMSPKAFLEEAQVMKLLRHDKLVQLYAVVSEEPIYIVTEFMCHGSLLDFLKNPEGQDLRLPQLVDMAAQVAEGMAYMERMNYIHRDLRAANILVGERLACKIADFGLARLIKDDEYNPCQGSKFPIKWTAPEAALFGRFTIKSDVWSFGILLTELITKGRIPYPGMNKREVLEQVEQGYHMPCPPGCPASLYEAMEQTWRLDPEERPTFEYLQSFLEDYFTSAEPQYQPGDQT
Chain of off-target kinases (Homo sapiens, UniProt O00750) (O00750 whole entry): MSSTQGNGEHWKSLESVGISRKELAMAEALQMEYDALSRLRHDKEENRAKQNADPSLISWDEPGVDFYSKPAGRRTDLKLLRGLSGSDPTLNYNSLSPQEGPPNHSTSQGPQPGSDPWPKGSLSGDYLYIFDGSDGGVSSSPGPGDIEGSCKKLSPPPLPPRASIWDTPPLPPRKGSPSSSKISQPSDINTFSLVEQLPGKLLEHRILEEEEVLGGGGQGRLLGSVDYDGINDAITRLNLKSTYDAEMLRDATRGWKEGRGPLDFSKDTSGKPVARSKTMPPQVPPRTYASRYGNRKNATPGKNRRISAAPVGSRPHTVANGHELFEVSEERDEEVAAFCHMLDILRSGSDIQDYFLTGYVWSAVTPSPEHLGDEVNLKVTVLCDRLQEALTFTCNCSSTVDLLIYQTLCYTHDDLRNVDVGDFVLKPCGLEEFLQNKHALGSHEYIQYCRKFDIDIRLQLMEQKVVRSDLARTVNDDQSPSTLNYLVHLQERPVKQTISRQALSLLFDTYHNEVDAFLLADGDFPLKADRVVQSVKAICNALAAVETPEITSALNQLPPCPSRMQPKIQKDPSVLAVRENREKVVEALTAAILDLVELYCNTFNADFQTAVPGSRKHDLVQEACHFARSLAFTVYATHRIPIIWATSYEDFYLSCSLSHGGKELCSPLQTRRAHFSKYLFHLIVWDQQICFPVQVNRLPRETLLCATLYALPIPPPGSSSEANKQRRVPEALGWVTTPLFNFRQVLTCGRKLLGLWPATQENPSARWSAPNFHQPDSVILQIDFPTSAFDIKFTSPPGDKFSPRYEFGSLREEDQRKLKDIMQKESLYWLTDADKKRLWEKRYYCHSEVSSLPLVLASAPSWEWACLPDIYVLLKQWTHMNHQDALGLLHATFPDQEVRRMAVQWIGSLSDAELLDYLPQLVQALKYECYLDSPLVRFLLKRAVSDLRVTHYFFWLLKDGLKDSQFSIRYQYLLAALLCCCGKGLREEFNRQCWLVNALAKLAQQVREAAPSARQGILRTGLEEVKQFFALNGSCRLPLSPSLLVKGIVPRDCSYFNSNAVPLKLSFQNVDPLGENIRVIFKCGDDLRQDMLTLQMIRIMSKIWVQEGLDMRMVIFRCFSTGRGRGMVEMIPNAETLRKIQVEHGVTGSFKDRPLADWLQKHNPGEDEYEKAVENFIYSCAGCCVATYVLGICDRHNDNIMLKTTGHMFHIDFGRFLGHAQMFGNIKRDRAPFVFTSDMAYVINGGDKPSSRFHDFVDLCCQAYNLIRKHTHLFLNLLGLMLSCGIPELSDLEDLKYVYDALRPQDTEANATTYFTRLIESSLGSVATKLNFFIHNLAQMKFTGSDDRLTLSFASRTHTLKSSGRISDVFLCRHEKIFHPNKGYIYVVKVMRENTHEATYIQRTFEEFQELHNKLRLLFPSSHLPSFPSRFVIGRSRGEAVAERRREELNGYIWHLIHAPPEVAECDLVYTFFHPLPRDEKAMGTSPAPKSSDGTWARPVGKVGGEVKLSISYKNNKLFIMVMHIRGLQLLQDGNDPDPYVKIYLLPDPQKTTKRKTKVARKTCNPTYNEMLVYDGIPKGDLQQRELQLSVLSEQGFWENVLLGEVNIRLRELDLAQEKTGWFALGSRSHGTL
Chain of off-target kinases (Homo sapiens, UniProt Q16539) (Q16539 whole entry): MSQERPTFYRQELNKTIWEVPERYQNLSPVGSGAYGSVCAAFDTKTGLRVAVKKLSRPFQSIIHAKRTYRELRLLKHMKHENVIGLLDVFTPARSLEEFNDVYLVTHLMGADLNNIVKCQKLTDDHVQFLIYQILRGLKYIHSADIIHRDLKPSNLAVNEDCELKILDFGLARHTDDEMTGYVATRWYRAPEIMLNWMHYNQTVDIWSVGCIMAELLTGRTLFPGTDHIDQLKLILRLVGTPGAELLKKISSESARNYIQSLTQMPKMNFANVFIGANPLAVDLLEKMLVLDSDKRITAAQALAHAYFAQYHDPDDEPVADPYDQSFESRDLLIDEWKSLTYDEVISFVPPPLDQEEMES

What does the source list for `N#Cc1cc(-c2ncnc(Nc3ccc(N4CCN(C5COC5)CC4)cc3)n2)ccc1OC1CCOCC1` [Compound 1, 5-(4-((4-(4-(oxetan-3-yl)piperazin-1-yl)phenyl)amino)-1,3,5-triazin-2-yl)-2-((tetrahydro-2H-pyran-4-yl)oxy)benzonitrile]?
inhibition ([1]; read-out: % Inhibition 1): 3%; inhibition ([1]; read-out: % Inhibition 2): -7%; inhibition ([1]; read-out: % Inhibition Avg): -2%; inhibition ([2]; read-out: % Inhibition 1): 91%; inhibition ([2]; read-out: % Inhibition 2): 92%; inhibition ([2]; read-out: % Inhibition Avg): 92%; inhibition ([3]; read-out: % Inhibition 1): 53%; inhibition ([3]; read-out: % Inhibition 2): 53%; inhibition ([3]; read-out: % Inhibition Avg): 53%; inhibition ([4]; read-out: % Inhibition 1): 2%; inhibition ([4]; read-out: % Inhibition 2): 12%; inhibition ([4]; read-out: % Inhibition Avg): 7%; inhibition ([5]; MAPK14 (p38 alpha) Direct, ATP Km app, read-out: % Inhibition 1): 2%; inhibition ([5]; MAPK14 (p38 alpha) Direct, ATP Km app, read-out: % Inhibition 2): 1%; inhibition ([5]; MAPK14 (p38 alpha) Direct, ATP Km app, read-out: % Inhibition Avg): 1%; inhibition ([5]; MAPK14 (p38 alpha), ATP 100, read-out: % Inhibition 1): -1%; inhibition ([5]; MAPK14 (p38 alpha), ATP 100, read-out: % Inhibition 2): 9%; inhibition ([5]; MAPK14 (p38 alpha), ATP 100, read-out: % Inhibition Avg): 4%; % Inhibition 1 [6]: −14%; % Inhibition 2 [6]: 2%; % Inhibition Avg [6]: −6%; inhibition ([7]; read-out: % Inhibition 1): 2%; inhibition ([7]; read-out: % Inhibition 2): 3%; inhibition ([7]; read-out: % Inhibition Avg): 2%
